Values joined by “and” are separate entries in the source; they are usually repeats but may differ in a detail not shown here. Equal values may be shown once. Read-outs that look alike come from different tables or passages of the source.
Columns and labels:
[1] = Sirolimus content of rabbit iliac arteries after inflation of sirolimus coated balloons; type: in vivo
Protocol: GHOST Rapid Exchange (Rx) Catheter was used in this example. Ghost 3.0×18 mm Rx catheter balloons were coated and used in animal study
A. Expansion in rabbit iliac arteries: 8 balloons (4 rabbits)
(§1) • 4 balloons—Balloons inflated in pre-dilated arteries (right iliac) for 60 seconds • 4 balloons—Balloons inflated in non-dilated arteries (left iliac) for 60 seconds B. Tracking Studies: 4 balloons (1 rabbit) • 4 balloons—Balloons inserted and not inflated in aorta for 2 min, then removed C. Sirolimus Quantification • Sirolimus content from: 8 balloons inflated in rabbit iliac arteries 4 balloons not inflated in rabbit aorta 8 rabbit iliac arteries (after balloon inflation) 8 whole blood samples (2 samples/rabbit) • Liver, kidney, spleen, heart, lung: stored (−80° C.) for later drug analysis Sirolimus Concentrations in Rabbit Iliac Arteries
• Drug coated balloons in right iliac arteries inflated/deflated—10-20 min before sacrifice • Drug coated balloons in left iliac arteries inflated/deflated—5-15 min before sacrifice Transfer Efficiency of Sirolimus to Rabbit Iliac Arteries
• Balloons inflated for 1 min in respective iliac arteries • % Sirolimus transferred to artery based on balloon batch average from UV-Vis data • Estimated time artery exposed to blood flow is time after balloon inflation

[2] = Sirolimus concentrations in whole blood samples after balloon inflation; type: in vivo, rabbit; conditions: for Est. Total Sirolimus in Blood: based on 56 mL per kg
Protocol: as §1
• Baseline samples taken before balloon inflation • After 2nd balloon inflation, blood samples were taken 5-15 min later • 5-15 min samples are the cumulative Sirolimus concentration from the inflation of 2 drug coated balloons per animal Total Sirolimus in blood based on 56 mL per kg Sirolimus Concentrations on Drug Coated Balloons (Rabbits)

[3] = Combined Right + Left Iliac Arteries, n = 8

Average Sirolimus [1, 3]: 197.2 ± 85.3 ng/mg and 197.2 ng/mg | Total Sirolimus per Artery Average [1, 3]: 4.7 µg | Total Sirolimus per Artery Average ([1]; Right Iliac (denuded), n = 4): 5.4 µg | Average Sirolimus ([1]; Right Iliac (denuded), n = 4, coated balloon inflated 60 s, 10-20 min before sacrifice): 178.3 ng/mg | Total Sirolimus per Artery ([1]; average of the 8 balloons/arteries): 4.7 µg | % Sirolimus Transferred to Artery ([1]; average of the 8 balloons/arteries, based on balloon batch average from UV-Vis data): 7.8±2.8% and 7.8% | Est. Total Sirolimus in Blood ([2]; average of 4 rabbits (5-15 min)): 5.4 ± 2.3 µg and 5.4 µg | Est. Total Sirolimus in Blood ([2]; rabbit #1, 15 min): 2.7 µg | Est. Total Sirolimus in Blood ([2]; rabbit #2, 5 min): 8.2 µg | Est. Total Sirolimus in Blood ([2]; rabbit #3, 5 min): 5.9 µg | Est. Total Sirolimus in Blood ([2]; rabbit #4, 10 min): 4.8 µg | concentration at 15 min ([2]; rabbit, whole blood, rabbit #1, 15 min after 2nd balloon inflation, cumulative of 2 coated balloons, read-out: Extraction Conc.): 11.4 ng/mL | concentration at 5 min ([2]; rabbit, whole blood, rabbit #2, 5 min after 2nd balloon inflation, cumulative of 2 coated balloons, read-out: Extraction Conc.): 30.8 ng/mL | concentration at 5 min ([2]; rabbit, whole blood, rabbit #3, 5 min after 2nd balloon inflation, cumulative of 2 coated balloons, read-out: Extraction Conc.): 22.2 ng/mL | concentration at 10 min ([2]; rabbit, whole blood, rabbit #4, 10 min after 2nd balloon inflation, cumulative of 2 coated balloons, read-out: Extraction Conc.): 19.3 ng/mL | Extraction Conc. ([2]; whole blood, average of 4 rabbits (5-15 min)): 20.9 ng/mL
Structure (SMILES): CO[C@H]1C[C@@H]2CC[C@@H](C)[C@@](O)(O2)C(=O)C(=O)N2CCCC[C@H]2C(=O)O[C@H]([C@H](C)C[C@@H]2CC[C@@H](O)[C@H](OC)C2)CC(=O)[C@H](C)/C=C(\C)[C@@H](O)[C@@H](OC)C(=O)[C@H](C)C[C@H](C)/C=C/C=C/C=C/1C [Sirolimus, rapamycin]
Total Sirolimus per Artery Average ([1]; Left Iliac (uninjured), n = 4): 3.9 µg | Average Sirolimus ([1]; Left Iliac (uninjured), n = 4, coated balloon inflated 60 s, 5-15 min before sacrifice): 216.1 ng/mg
